Tests used:
[1] = test system: interleukin-2 mRNA expression; test: Interleukin-2 mRNA expression in Jurkat cells expressing G17V RHOA mutant, CD3/CD28 bead stimulation; format: cell-based, human; conditions: dasatinib 0 to 10 nM, CD3/CD28 beads, 3 hours, FIG. 8
Protocol: Dynabeads T-activator CD3/CD28 (Veritas) were mixed with buffer (PBS supplemented with 0.1% BSA+2 mM EDTA, pH 7.4) and allowed to stand on a magnetic rack to remove the supernatant.
Jurkat cells engineered with a lentivirus-mediated Tet-On system to express wild-type or G17V RHOA cDNA were seeded in RPMI (10% FCS, 1% PS) at 2×10^5 cells/mL in 15 cm petri dishes in triplicate. Doxycycline was added to give a final concentration of 2 μg/mL. On the following day, the cells were collected and seeded in a 24-well plate. The Dynabeads T-activator CD3/CD28 (Veritas) washed above were added. After 3 and 6 hours, the cells were collected. The cells were washed once with PBS and their RNA was extracted with an RNeasy Mini Kit (Qiagen). […] IL-2 mRNA was measured with the primer/probe sets of Taqman Gene Expression Assays (Thermo Fisher Scientific). rRNA was measured with TaqMan® Ribosomal RNA Control Reagents (Thermo Fisher Scientific) and used for correction.
Jurkat cells engineered with a lentivirus-mediated Tet-On system to express wild-type RHOA or G17V RHOA cDNA were seeded in RPMI (10% FCS, 1% PS) at 2×10^5 cells/mL in 15 cm petri dishes in triplicate. […] IL-2 mRNA was measured with the primer/probe sets of Taqman Gene Expression Assays (Thermo Fisher Scientific). rRNA was measured with TaqMan® Ribosomal RNA Control Reagents (Thermo Fisher Scientific) and used for correction.

NFAT activity = test: NFAT luciferase reporter activity in Jurkat cells expressing VAV1 mutant; format: cell-based, human; conditions: dasatinib 0 to 10 nM, 30 minutes, anti-CD3 stimulation, FIG. 16
Protocol: In accordance with the protocol of Dual Luciferase Reporter Assay (Promega), firefly luciferase activity and renilla luciferase activity were each measured, and the value of firefly luciferase was divided by the value of renilla luciferase to correct the transfection efficiency. In more detail, the cells were mixed with Passive Lysis Buffer (PLB) in a volume of 100 μl/tube, followed by freezing at −80° C. to lyse the cells. After centrifugation, the supernatants were collected. In a 96-well plate. LARII was dispensed in a volume of 100 μl/well. 20 μl of each cell lysate was added. The plate was mounted on a luminometer and Stop & Glo® Reagent was added in 100 μL volumes, followed by measurement again with the luminometer.
In a 96-well flat-bottomed plate, LEAF™ purified anti-human CD3 Ab (BioLegend) adjusted to 10 μg/ml with PBS was dispensed in a volume of 50 μL/well and incubated overnight at 4° C. After removal of the antibody solution, each well was washed three times with sterile PBS.
Jurkat cells were seeded at 5×10^4 cells/well in a 24-well plate. […] After 30 minutes, the cells were collected and then stimulated with LEAF™ purified anti-human CD3 Ab (BioLegend) and measured for firefly luciferase activity and renilla luciferase activity by reference to Example 3 described above, etc.

phosphorylated VAV1 = test: Anti-phosphorylated VAV1 staining of swollen lymph node sections of AITL transplant model mice; format: in vivo, mouse; conditions: nude mice; dasatinib three times daily for 2 days, 2 weeks after cell injection; sacrificed on the following day
Protocol: In addition, donor mouse swollen lymph node-derived cells (2×10^7 cells) were all intraperitoneal injected into nude mice and, after 2 weeks, dasatinib or a control solution was administered three times daily for 2 days in accordance with the above procedure. On the following day, the nude mice were sacrificed, and thin section specimens were prepared from their swollen lymph nodes and then stained with anti-phosphorylated VAV1 antibody.

VAV1 [2] = test: VAV1 Y174 phosphorylation in Jurkat cells expressing VAV1 mutant, anti-CD3 stimulation; format: cell-based, human; conditions: dasatinib 0 to 10 nM, 30 minutes, FIG. 15
VAV1 [3] = test: VAV1 Y174 phosphorylation (Western blot) in Jurkat cells expressing G17V RHOA mutant, anti-CD3 stimulation; format: cell-based, human; conditions: dasatinib 0 to 10 nM, 30 minutes, FIG. 7(A)
Protocol: (§1) (1) Jurkat cells (T-cell leukemia cell line) engineered with a lentivirus-mediated Tet-On system to express wild-type RHOA cDNA or a RHOA coding region modified to comprise a G to T substitution at position 50 of the coding region (hereinafter referred to as G17V RHOA cDNA) were seeded in RPMI (10% FCS, 1% PS) at 2×10^5 cells/mL in 15 cm petri dishes in triplicate. Doxycycline was added to give a final concentration of 2 μg/mL. On the following day, the cells were collected and centrifuged, and then seeded in RPMI (serum-free) at 6×10^5 cells/mL in 15 cm petri dishes in triplicate. After 4 hours, the cells were collected and washed once with sterile phosphate buffered saline (PBS), and then adjusted to 2×10^4 cells/ml and transferred to 15 ml tubes, followed by incubation at 37° C. for 5 minutes. LEAF™ purified anti-human CD3 Ab (BioLegend) and anti-mouse IgG antibody Ab (at 2 μg/ml each) were added. The cells were incubated at 37° C. for 5 minutes or 30 minutes. Cold PBS (10 ml) was added to each tube, followed by centrifugation to remove the supernatants. Lysis buffer (supplemented in advance with complete protease inhibitor and PhosSTOP) was added in a volume of 1000 μl/tube. The tubes were incubated on ice for 20 minutes and centrifuged to collect the supernatants. Laemuli's buffer and DTT were added, followed by incubation at 95° C. for 5 minutes. […]

[4] = test system: angioimmunoblastic T-cell lymphoma (AITL) model mice; test: AITL therapeutic transplant model: nude mice injected with donor mouse swollen lymph node-derived cells; format: in vivo
Protocol: An AITL model is regarded as having been established, but a long incubation period is required to observe oncogenesis after pIpC administration. For this reason, this genetically modified mouse model is not suitable for use in therapeutic experiments. Thus, an attempt was made to establish a transplant model. […] It should be noted that inflammatory cells migrating to the tumor tissue were composed of donor mouse-derived cells and host mouse-derived cells in admixture.
Donor mouse swollen lymph node-derived cells (2×10^7 cells) were all intraperitoneally injected into nude mice and, after 2 weeks (after lymph node swelling was observed by echography in some mice), 5 mg/kg of dasatinib dissolved in a solution of propylene glycol:distill water adjusted to 1:1 was orally administered to the mice for successive 14 days (the dasatinib group: “Dasatinib” in FIG. 17). As a control, nude mice under completely the same conditions were administered with the same volume of the solution alone (propylene glycol: distill water=1:1) according to the same schedule (the control group: “Vehicle” in FIG. 17). The results of these administration experiments are show in FIG. 17.

PLC-gamma 1 = PLC-gamma 1 phosphorylation (Western blot) in Jurkat cells expressing G17V RHOA mutant; format: cell-based, human; conditions: dasatinib 0 to 10 nM, 30 minutes, FIG. 7(B)
Protocol: as §1

[5] = 5 mg/kg orally for successive 14 days, FIG. 17

Cc1nc(Nc2ncc(C(=O)Nc3c(C)cccc3Cl)s2)cc(N2CCN(CCO)CC2)n1 [dasatinib, N-(2-chloro-6-methyl-phenyl)-2-[[6-[4-(2-hydroxyethyl)-1-piperazinyl]-2-methyl-4-pyrimidinyl]amino]-5-thiazolecarboxamide]
enhanced interleukin-2 mRNA expression induced by G17V RHOA mutant expression [1]: cancels the enhanced interleukin-2 mRNA expression | enhanced NFAT activity induced by VAV1 mutant expression (NFAT activity): cancels the enhanced NFAT activity | phosphorylated VAV1 staining in swollen lymph nodes (phosphorylated VAV1): phosphorylated VAV1 was not stained | enhanced Y174 phosphorylation induced by VAV1 mutant expression (VAV1 [2]): cancels the enhanced Y174 phosphorylation | enhanced Y174 phosphorylation (VAV1) induced by G17V RHOA mutant expression (VAV1 [3]): cancels the enhanced Y174 phosphorylation | mice showing progression of lymphoma (body weight loss and hyposthenia) ([4]; 5 mg/kg orally for successive 14 days starting 2 weeks after cell injection, observation period of 150 days, 6/18): 33.3% | progression of lymphoma versus control group [4, 5]: progression was significantly suppressed | survival versus control group [4, 5]: survival was prolonged | enhanced PLC-gamma 1 phosphorylation induced by G17V RHOA mutant expression (PLC-gamma 1): cancels the enhanced PLC-gamma 1 phosphorylation

Source: US11058685B2, “Therapeutic agent for tumors identified by phosphorylation of proto-oncogene protein belonging to VAV family” (priority 2016, dated 2021)
